Assay results from patent publication US9751825B2, “TAK1 kinase inhibitors, compositions, and used related thereto” (Emory University, priority 2011, dated 2017).
pIC50: −log10 of the molar value. Entries after “also recorded” stand apart in the source; their conditions may differ. Where two headings read alike, the source gives them in different places. Values belong to the compound of their own block, whether it stands above or below them.

Legend:
[1] = system: prostate cancer cells (PC3) and breast cancer MDA-MB-231 cells; assay: Tumor cell growth with kinase inhibitors, with or without TNFα (FIG. 2); type: cell-based; conditions: 48 hrs; for tumor cell growth: 5 μM U0126, 10 μM 1478, 5 μM 5Z-7-oxozeanol, 5 μM HDAB001, 5 μM SB431542; for repression of tumor cell growth together with TNFα: TNFα (10 ng/ml)
Excerpt: The response of prostate cancer cells (PC3, FIG. 2) and breast cancer MDA-MB-231 cells to HDAB001 was compared with responses to known kinase inhibitors, including 5Z-7-oxozeanol, a selective inhibitor of TAK1; U0126, a selective MEK inhibitor; AG1478, a selective EGFR inhibitor; SB431542, TGFBR1 inhibitor.

phosphorylation of ERK = assay: Phosphorylation of ERK in non-tumor MCF10A cells with EGF-mediated signaling; type: cell-based, human; conditions: 10 μM HDAB001, 10 μM AG1478
Experimental: (§1) MEK inhibitor U0126 inhibits phosphorylation of ERK and EGFR inhibitor blocks EGFR-mediated phospho-ERK in MCF10A.
(§2) The selectivity of the HDAB001 and HDAB006 compounds was tested in several cell-based assays examining the kinase activity of RAF, MEK, EGFR and TGFBR1. Several known inhibitors of the above kinases were used for control. Two luciferase reporters NF-KB-Luc and SBE-Luc were transfected in MDA-MB-231 cells to assess the effect of compounds on NF-KB and TGF-beta receptor-Smad signaling events. […] See Safina et al., TAK1 is required for TGF-[beta]1-mediated regulation of matrix metalloproteinase-9 and metastasis. Oncogene, 2008, 27, 1198-1207. […] The kinase activities of TGF-beta receptors type I and type II are required for phosphorylation of Smad2.

[2] = system: breast carcinoma MDA-MB-231 cells; assay: Cytotoxicity assay (methylene blue staining), MDA-MB-231 cells; type: cell-based
Experimental: (§3) The assay consists of treatment of cells with the synthetic compounds (a range of concentrations) and subsequent quantification of the cells by staining with methylene blue and measuring optical density of the resulting colored solution. The measured optical densities are normalized to a vehicle-control and the normalized values are used to determine IC50 values for a given compound using SigmaPlot software, Systat Software, Inc., San Jose, Calif. Cells were seeded in 96-well plate at 2-5,000 cells/well in 100 μl. Next day cells were treated with HDAB compounds. Stocks of compounds (10 mM) were prepared by dissolving in DMSO. Consecutive dilutions ranging 10 nM-100 μM concentrations were prepared as 2× solutions in media, and 100 μl solutions were added to cells for treatment. DMSO was used as a vehicle control. Cells were incubated with compounds for 48 hours at 37° C. in a CO2-incubator. For cell staining, media was removed and cells were fixed and stained with 0.5% Methylene blue in water/methanol (50:50) solution for 1 hour at room temperature (RT). After extensive rinsing in ddH2O the plates were dried over-night. Cells were solubilized in 100 μl/well of 1% SDS in PBS for 10 minutes at RT, the absorbance at 650 nm (methylene-blue absorbance) and 540 nm (background) was read with a SpectraMax fluorimeter and the difference Abs650-Abs540 was calculated.

[3] = system: phosphorylation of ERK1/2; assay: Phosphorylation of ERK1/2 in MDA-MB-231 cells; type: cell-based; conditions: 2 ng/ml TGFβ1 for 2 hours, 10 μM HDAB001, 5 μM U0126
Experimental: as §1, §2

[4] = system: breast, prostate and lung carcinoma and non-tumor cell lines; type: cell-based
Experimental: as §3
Assays were carried out with a panel of breast, prostate and lung carcinoma and non-tumor cell lines with HDAB-001. […] The selectivity trend for HDAB001 was further validated in a set of prostate carcinoma and non-tumor epithelial cell lines.

[5] = Stability of the isolated product at room temperature; type: physicochemical
PC3 = assay: Cytotoxicity of HDAB001 in prostate carcinoma cell lines, PC3; type: cell-based; conditions: PC3, AR neg, metastatic
Experimental: as §3, with “calculated. […]” for “calculated.”

LNCaP = assay: Cytotoxicity of HDAB001 in prostate carcinoma cell lines, LNCaP; type: cell-based; conditions: AR pos, tumor
Experimental: as §3, with “calculated. […]” for “calculated.”

LNCaP-C4-2 = assay: Cytotoxicity of HDAB001 in prostate carcinoma cell lines, LNCaP-C4-2; type: cell-based; conditions: LNCaP-C4-2, AR pos, ind, metastatic
Experimental: as §3, with “calculated. […]” for “calculated.”

RWPE-1 = assay: Cytotoxicity of HDAB001 in prostate cell lines, RWPE-1 (non-tumor); type: cell-based; conditions: RWPE-1, AR pos
Experimental: as §3, with “calculated. […]” for “calculated.”

RWPE-2 = assay: Cytotoxicity of HDAB001 in prostate carcinoma cell lines, RWPE-2; type: cell-based; conditions: RWPE-2, AR pos, tumor, metastatic
Experimental: as §3, with “calculated. […]” for “calculated.”

ER-positive cell lines = assay: Cytotoxicity in ER-positive breast carcinoma cell lines; type: cell-based; conditions: three ER-positive cell lines
Experimental: as §3, with “calculated. […]” for “calculated.”

ER/HER2-positive lines = assay: Cytotoxicity in ER/HER2-positive breast carcinoma lines; type: cell-based; conditions: two ER/HER2-positive lines
Experimental: as §3, with “calculated. […]” for “calculated.”

[6] = system: mouse carcinoma cell line 4T1; assay: Cytotoxicity in mouse carcinoma cell line 4T1; type: cell-based; conditions: 4T1 (from BALB/c mice)
Experimental: as §3, with “calculated. […]” for “calculated.”

[7] = system: Non-tumor MCF10A (ER-, PR-) cells; assay: Cytotoxicity in non-tumor MCF10A cells; type: cell-based, human
Experimental: as §3, with “calculated. […]” for “calculated.”

[8] = system: Non-tumor MCF12A (ER+) cells; assay: Cytotoxicity in non-tumor MCF12A cells; type: cell-based, human
Experimental: as §3, with “calculated. […]” for “calculated.”

SBE-Luc = SBE-Luc luciferase reporter (TGF-beta receptor-Smad signaling) in MDA-MB-231 cells; type: cell-based
Experimental: FIG. 3A-B show data on the luciferase activity of NFkB-Luc and SBE-Luc reporters in MDA-MB-231 control, dnTAK1 or cells treated with HDAB001 and HDAB006, P-values by the ANOVA test.
as §2

phosphorylation of Smad2 = assay: Phosphorylation of Smad2 in TGFβ1-treated cells; type: cell-based; conditions: 2 ng/ml TGFβ1 for 2 hours; HDAB001 10 μM
Experimental: as §1, §2

[9] = triple-negative MDA-MB-231 cells

SMILES: COc1cc2ncnc(Nc3cccc(Cl)c3)c2cc1OC [AG1478]
- tumor cell growth [1]: resistant
- phosphorylation of ERK in the presence of EGF-mediated signaling (phosphorylation of ERK): blocked

SMILES: COC(=O)/C=C\C=C(\C(=O)OC)c1ccc(Br)c(Br)c1 [HDAB022, (2E,4Z)-dimethyl 2-(3,4-dibromophenyl)hexa-2,4-dienedioate]
- pIC50 ([2]; Homo sapiens, MDA-MB-231 cells, 48 hours incubation, methylene blue staining): 5.67

SMILES: N#CC(=C(/N)Sc1ccccc1N)/C(C#N)=C(\N)Sc1ccccc1N [Compound U0126]
- tumor cell growth [1]: less sensitive
- phosphorylation of ERK1/2 [3]: inhibits; also recorded: effectively blocked

SMILES: COc1cc(O)c2c(c1)/C=C/C[C@H](O)[C@H](O)C(=O)/C=C\C[C@H](C)OC2=O [5Z-7-oxozeanol]
- tumor cell growth [1]: markedly inhibited
- repression of tumor cell growth together with TNFα [1]: cooperated with TNFα

SMILES: COc1cccc2c1C(=O)c1c(O)c3c(c(O)c1C2=O)C[C@@](O)(C(=O)CO)C[C@@H]3O[C@H]1C[C@H](N)[C@H](O)[C@H](C)O1 [Doxorubicin, reference compound]
- more toxic to non-tumor MCF10A than to breast cancer MDA-MB-231 cells ([4]; human, 48 h): 3-10 fold

- stability after isolation [5]: decomposed at room temperature
SMILES: COC(=O)/C=C\C=C(\C(=O)N(C)OC)c1ccc(Cl)c(Cl)c1 [Compound 1-63h, (2Z,4E)-methyl 5-(3,4-dichlorophenyl)-6-(methoxy(methyl)amino)-6-oxohexa-2,4-dienoate]

SMILES: COC(=O)/C=C\C=C(\C(=O)OC)c1ccc(Cl)c(Cl)c1 [HDAB001]
- pIC50 ([2]; MDA-MB-231 cells, 48 hours incubation, methylene blue staining): 5.34
- pIC50 [2, 9]: 5.43
- pIC50 (PC3): 5.64
- pIC50 (LNCaP): 5.68
- pIC50 (LNCaP-C4-2): 6.30
- pIC50 (RWPE-1): 4.40
- pIC50 (RWPE-2): 5.62
- pIC50 (ER-positive cell lines): 6.12 to 6.52
- pIC50 (ER/HER2-positive lines): 5.82 to 6.00
- pIC50 [6]: 6.28
- pIC50 [7]: 4.32
- pIC50 [8]: < 4.00
- IC50 in non-tumor MCF10A and MCF12A cells relative to tumor cells ([4]; non-tumor vs tumor cells): ~20 fold
- selectivity for tumor cells compared to non-tumor cells ([4]; tumor vs non-tumor cells): at least twenty-fold
- tumor cell growth [1]: markedly inhibited
- repression of tumor cell growth together with TNFα [1]: cooperated with TNFα
- TGF-beta reporter activity (SBE-Luc): did not affect
- phosphorylation of Smad2 (phosphorylation of Smad2): did not affect
- phosphorylation of ERK1/2 [3]: did not affect
- phosphorylation of ERK in the presence of EGF-mediated signaling (phosphorylation of ERK): did not affect

SMILES: NC(=O)c1ccc(-c2nc(-c3ccc4c(c3)OCO4)c(-c3ccccn3)[nH]2)cc1 [SB431542, reference compound]
- tumor cell growth [1]: resistant
- phosphorylation of Smad2 (phosphorylation of Smad2): blocked

SMILES: O=c1[nH]cc(F)c(=O)[nH]1 [Compound 5FU, 5-FluororoUricil, reference compound]
- pIC50 [2, 9]: 5.24
- pIC50 [7]: 5.74
- more toxic to non-tumor MCF10A than to breast cancer MDA-MB-231 cells [4]: 3-10 fold
